# Data: US9765018B2, “IDO inhibitors” (BRISTOL-MYERS SQUIBB COMPANY, priority 2013, dated 2017)
# What was measured:
# [1] = target: T1, IDO (Homo sapiens (Human), UniProt P14902); test: Kynurenine assay in IFN-γ-stimulated Hela cells; assay type: cell-based; settings: 20 h, read-out: Hela Kyurenine (IC50)
# Summary of the method: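 Hela cells adhered 5-6 h, then received inhibitor (top dose 30 μM, 3-fold dilutions to 1.5 nM) plus 100 ng/mL human IFN-γ to induce IDO, 20 h at 37° C. TCA added, 30 min at 50° C hydrolyses N-formylkynurenine to kynurenine. Supernatant mixed with Ehrlich reagent, 10 min RT, absorbance 490 nm.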
# [2] = target: T1, IDO; test: LLE_IDO_ABS_DR (IDO assay, method not described)
# T1 sequence (P14902 whole entry): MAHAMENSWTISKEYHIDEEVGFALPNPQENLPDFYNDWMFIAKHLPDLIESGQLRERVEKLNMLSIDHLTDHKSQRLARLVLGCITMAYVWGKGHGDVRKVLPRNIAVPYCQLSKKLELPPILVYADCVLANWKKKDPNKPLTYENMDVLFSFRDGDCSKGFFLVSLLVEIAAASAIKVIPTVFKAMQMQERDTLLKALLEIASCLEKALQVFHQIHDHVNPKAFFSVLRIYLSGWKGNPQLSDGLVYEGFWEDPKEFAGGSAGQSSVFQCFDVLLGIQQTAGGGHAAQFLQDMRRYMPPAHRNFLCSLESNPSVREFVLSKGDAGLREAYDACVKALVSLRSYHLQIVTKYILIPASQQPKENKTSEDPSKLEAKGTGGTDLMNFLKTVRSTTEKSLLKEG
IC50 [1],IC50 [2],SMILES
0.93 µM,10 µM,"COc1ccccc1NC(=O)Nc1cc(-c2cccc(C(=O)O)c2)ccc1Oc1ccccc1C(C)(C)C [Example 227, 4′-(2-tert-butylphenoxy)-3′-(3-(2-methoxyphenyl)ureido)biphenyl-3-carboxylic acid]"
0.44 µM,10 µM,"Cc1ccccc1NC(=O)Nc1cc(-c2cc(Cl)cc(C(=O)O)c2)ccc1Oc1ccccc1C(C)(C)C [Example 238, 4′-(2-tert-butylphenoxy)-5-chloro-3′-(3-o-tolylureido) biphenyl-3-carboxylic acid]"
0.86 µM,4.06 µM,"CC(C)(C)c1ccccc1Oc1ccc(-c2ccc(Cl)cc2C(=O)O)cc1NC(=O)Nc1ccccc1Cl [Example 158, 4′-(2-tert-butylphenoxy)-4-chloro-3′-(3-(2-chlorophenyl)ureido)biphenyl-2-carboxylic acid]"
0.09 µM,0.31 µM,"Cc1ccc(NC(=O)Nc2cc(-c3cccc(F)c3C(=O)O)ccc2Oc2ccccc2C(C)(C)C)cc1 [Example 171, 4′-(2-tert-butylphenoxy)-3-fluoro-3′-(3-p-tolylureido)biphenyl-2-carboxylic acid]"
0.39 µM,2.34 µM,"COc1ccc(-c2ccc(O[C@@H]3CCCC[C@H]3C)c(NC(=O)Nc3cccc(C)c3)c2)cc1C(=O)O (relative stereo) [Example 138, 4-methoxy-4′-((trans)-2-methylcyclohexyloxy)-3′-(3-m-tolylureido)biphenyl-3-carboxylic acid]"
0.38 µM,16.7 µM,COc1ccc(-c2cnc(Oc3ccccc3C(C)(C)C)c(NC(=O)Nc3cccc(C)c3)c2)cc1C(=O)O [Example 334]
0.37 µM,1.44 µM,"COc1ccc(-c2ccc(Oc3ccccc3C(C)(C)C)c(NC(=O)Nc3ccccc3Cl)c2)c(-c2nnn[nH]2)c1 [Example 192, 1-(4-(2-tert-butylphenoxy)-4′-methoxy-2′-(1H-tetrazol-5-yl)biphenyl-3-yl)-3-(2-chlorophenyl)urea]"
0.64 µM,0.68 µM,"Cc1ccccc1NC(=O)Nc1cc(-c2ccccc2C(=O)O)ccc1Oc1ccccc1C(C)(C)C [Example 156, 4′-(2-tert-butylphenoxy)-3′-(3-o-tolylureido)biphenyl-2-carboxylic acid]"
0.14 µM,0.82 µM,"COc1ccc(-c2ccc(Oc3ccccc3C3CC3)c(NC(=O)Nc3ccccc3Cl)c2)cc1C(=O)O [Example 124, 3′-(3-(2-chlorophenyl)ureido)-4′-(2-cyclopropylphenoxy)-4-methoxybiphenyl-3-carboxylic acid]"
0.89 µM,1.74 µM,"Cc1ccc(NC(=O)Nc2cc(-c3ccc(C(=O)O)nc3)ccc2Oc2ccccc2C(C)(C)C)cc1 [Example 178, 5-(4-(2-tert-butylphenoxy)-3-(3-p-tolylureido)phenyl)picolinic acid]"
1.3 µM,3.63 µM,"CC(C)(C)c1ccccc1Oc1ccc(-c2cc(Cl)ccc2C(=O)O)cc1NC(=O)Nc1ccccc1Cl [Example 166, 4′-(2-tert-butylphenoxy)-5-chloro-3′-(3-(2-chlorophenyl)ureido)biphenyl-2-carboxylic acid]"
0.59 µM,1.83 µM,"COc1ccc(-c2ccc(Oc3cccc4c3OC(C)(C)C4)c(NC(=O)Nc3ccccc3Cl)c2)cc1C(=O)O [Example 133, 3′-(3-(2-chlorophenyl)ureido)-4′-(2,2-dimethyl-2,3-dihydrobenzofuran-7-yloxy)-4-methoxybiphenyl-3-carboxylic acid]"
0.27 µM,0.58 µM,"COc1ccc(-c2ccc(Oc3ccc4c(c3)CCCC4)c(NC(=O)Nc3ccccc3C)c2)cc1C(=O)O [Example 146, 4-methoxy-4′-(5,6,7,8-tetrahydronaphthalen-2-yloxy)-3′-(3-o-tolylureido)biphenyl-3-carboxylic acid]"
0.19 µM,0.76 µM,"COc1ccc(-c2ccc(Oc3ccccc3C3CC3)c(NC(=O)Nc3cccc(C)c3)c2)cc1C(=O)O [Example 126, 4′-(2-cyclopropylphenoxy)-4-methoxy-3′-(3-m-tolylureido)biphenyl-3-carboxylic acid]"
